Experimental data: US11339171B2, “MDM2 inhibitors” (Gan & Lee Pharmaceuticals, priority 2017, dated 2022)
Several values for one entry are separate records, joined by “and”; a condition that tells them apart may be missing. Equal values may be shown once. Read-outs that look alike come from different tables or passages of the source.

Legend:
MDM2 = target: T1, MDM2 (Homo sapiens, UniProt Q00987); assay: Inhibition test of MDM2-P53 (GST-MDM2, Biotin-P53, Anti-GST-Tb, SA-XL665); assay type: binding
T1 construct: made in house
T1 sequence (Q00987 whole entry): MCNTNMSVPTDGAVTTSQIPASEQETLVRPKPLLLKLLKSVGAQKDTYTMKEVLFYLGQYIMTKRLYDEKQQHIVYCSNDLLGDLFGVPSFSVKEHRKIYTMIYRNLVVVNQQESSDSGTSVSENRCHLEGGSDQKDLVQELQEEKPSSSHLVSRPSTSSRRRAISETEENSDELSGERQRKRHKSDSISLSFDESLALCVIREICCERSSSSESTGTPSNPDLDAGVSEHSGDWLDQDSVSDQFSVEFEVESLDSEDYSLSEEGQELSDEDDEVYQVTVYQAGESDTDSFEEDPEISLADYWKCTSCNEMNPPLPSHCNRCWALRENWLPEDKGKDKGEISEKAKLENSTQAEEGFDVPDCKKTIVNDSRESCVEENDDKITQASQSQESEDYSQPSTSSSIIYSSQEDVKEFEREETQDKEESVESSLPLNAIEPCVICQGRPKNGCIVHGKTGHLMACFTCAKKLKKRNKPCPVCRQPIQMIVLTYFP
In short: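 HTRF-type assay using 4 nM GST-MDM2 (final), Biotin-P53, SA-XL665 and anti-GST-Tb in PBS with 0.1% BSA, 5 mM DTT and 1 mM AEBSF. Compounds in 5-fold serial dilutions over twelve points; incubation 90 min at 25° C with shaking before plate-reader read-out.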

[1] = Pharmacokinetics in ICR mice after intravenous and intragastric administration; assay type: in vivo; conditions: for MRT last: read-out: MRT(0-t); for MRT inf: read-out: MRT(0-∞); for Vd: read-out: Vz; for half-life: read-out: t1/2 (converted)
Method: Experimental Example 3 Determination of the Pharmacokinetics of the Mdm2 Inhibitors of the Present Invention in Mice
ICR mice were used as the test animals, and the concentrations of the drugs in plasma of mice at different time points after intravenous administration and intragastric administration of the representative compounds were measured by a LC/MS/MS method, so as to study the pharmacokinetic behavior of the compounds of the present invention in mice and evaluate the pharmacokinetic characteristics thereof.
Some compounds prepared in Examples 1-180 of the present invention.
The control drug HDM201 was prepared by the method disclosed in patent No. CN104203952A.
Healthy adult ICR mice, male, 6-9 weeks old, weighing 20-30 g, purchased from Shanghai Xipuer-Bikai Laboratory Animal Co., Ltd., Animal Production License No.: SCXK (HU) 2013-0016
3.2.3 Preparation of Test Drugs
Intragastric or intravenous administration: an appropriate amount of sample was weighed, dissolved in 5% DMSO+40% PEG400+55% (10% HP-β-CD in Saline) to prepare a 0.5 mg/ml solution for intragastric or intravenous administration.
3.2.4 Administration of Test Drugs
Intravenous administration: for each test compound, 3 male ICR mice were administered intravenously at a dose of 2 mg/kg and an administration volume of […] after fasting overnight.
Intragastric administration: for each test compound, 3 male ICR mice were administered intragastrically at a dose of 5 mg/kg and an administration volume of […] after fasting overnight.
3.3 Experimental Operation
The collected plasma was stored at −80° C. before analysis. The plasma sample was analyzed by LC-MS/MS, and the sample was pretreated by protein precipitation method. The linear range of sample analysis was 1 to 2000 ng/ml. The lowest quantification limit was 1 ng/mL. WinNonlin (Pharsight, USA) was used to calculate the following pharmacokinetic parameters: area under the curve AUC(0-t), area under the curve AUC(0-∞), half-life t1/2, retention time MRT(0-∞), blood drug concentration Cmax, time taken to reach the peak blood drug concentration Tmax, bioavailability F, apparent volume of distribution Vz, and clearance rate CL.

[2] = system: human osteosarcoma cell line SJSA-1; assay: Inhibition of proliferation of human osteosarcoma cell line SJSA-1 (DAPI staining, In Cell Analyzer); conditions: Homo sapiens, SJSA-1, 72 h, read-out: IC50 (nM), inhibitory activity on proliferation of human osteosarcoma cell line SJSA-1, SJSA-1, incubated 72 h
[3] = IV 2 mg/kg, ICR mice, individual animal, 2 mg/kg
[4] = PO 5 mg/kg, ICR mice, individual animal, 5 mg/kg
[5] = male, ICR, mouse, plasma, iv, 2 mg/kg, IV 2 mg/kg, ICR mice, Mean
[6] = male, ICR, mouse, plasma, iv, 2 mg/kg, IV 2 mg/kg, ICR mice, individual animal
[7] = male, ICR, mouse, plasma, po, 5 mg/kg, PO 5 mg/kg, ICR mice, Mean
[8] = male, ICR, mouse, plasma, po, 5 mg/kg, PO 5 mg/kg, ICR mice, individual animal

Compound: COc1ccc(-c2nc3c(n2C(C)C)[C@@]2(C(=O)Nc4cc(Cl)ccc42)N(c2cc(Cl)ccc2C)C3=O)c(OC)c1 [Example S-9, (S)-6-chloro-5′-(5-chloro-2-methylphenyl)-2′-(2,4-dimethoxyphenyl)-3′-isopropyl-3′H-spiro[dihydroindole-3,4′-pyrrolo[3,4-d]imidazole]-2,6′(5′H)-dione]
- IC50 (MDM2): 2.38 nM
- AUC(0-t) [1, 3]: 4107.04 ng·h/mL and 3334.44 ng·h/mL
- AUC(0-∞) [1, 3]: 4214.93 ng·h/mL and 3452.37 ng·h/mL
- CL [1, 3]: 7.9083 mL/min/kg and 9.6552 mL/min/kg
- Cmax [1, 3]: 1643.99 ng/mL and 1403.26 ng/mL
- MRT(0-t) [1, 3]: 1.47 h
- MRT(0-∞) [1, 3]: 1.63 h and 1.68 h
- Vz [1, 3]: 0.79338 L/kg and 1.05516 L/kg
- t1/2 [1, 3]: 1.16 h and 1.26 h
- F* ([1]; PO 5 mg/kg vs IV 2 mg/kg, ICR mice): 79.30%
- AUC(0-t) [1, 4]: 8692.39 ng·h/mL and 6976.33 ng·h/mL
- AUC(0-∞) [1, 4]: 8911.44 ng·h/mL and 7048.92 ng·h/mL
- Cmax [1, 4]: 2009.05 ng/mL and 1914.07 ng/mL
- MRT(0-t) [1, 4]: 2.60 h and 2.68 h
- MRT(0-∞) [1, 4]: 2.78 h and 2.75 h
- Tmax [1, 4]: 1.00 h
- t1/2 [1, 4]: 1.44 h and 1.22 h
- AUC(0-inf) [1, 5]: 3830 ng·h/mL
- clearance [1, 5]: 8.76 mL/min/kg
- AUC(0-t) ([1]; male, ICR, mouse, plasma, iv, 2 mg/kg, IV 2 mg/kg, ICR mice, Mean, read-out: AUC(0-t)): 3700 ng·h/mL
- Cmax ([1]; male, ICR, mouse, plasma, iv, 2 mg/kg, IV 2 mg/kg, ICR mice, Mean, read-out: Cmax): 1440 ng/mL
- MRT last [1, 5]: 1.51 h
- MRT inf [1, 5]: 1.73 h
- Tmax ([1]; male, ICR, mouse, plasma, iv, 2 mg/kg, IV 2 mg/kg, ICR mice, Mean, read-out: Tmax): 0.083 h
- Vd [1, 5]: 0.968 L/kg
- half-life [1, 5]: 1.27 h
- AUC(0-inf) [1, 6]: 3830 ng·h/mL
- clearance [1, 6]: 8.7 mL/min/kg
- AUC(0-t) ([1]; male, ICR, mouse, plasma, iv, 2 mg/kg, IV 2 mg/kg, ICR mice, individual animal, read-out: AUC(0-t)): 3650 ng·h/mL
- Cmax ([1]; male, ICR, mouse, plasma, iv, 2 mg/kg, IV 2 mg/kg, ICR mice, individual animal, read-out: Cmax): 1270 ng/mL
- MRT last [1, 6]: 1.58 h
- MRT inf [1, 6]: 1.88 h
- Tmax ([1]; male, ICR, mouse, plasma, iv, 2 mg/kg, IV 2 mg/kg, ICR mice, individual animal, read-out: Tmax): 0.08 h
- Vd [1, 6]: 1.05 L/kg
- half-life [1, 6]: 1.4 h
- AUC(0-inf) [1, 7]: 7510 ng·h/mL
- AUC(0-t) ([1]; male, ICR, mouse, plasma, po, 5 mg/kg, PO 5 mg/kg, ICR mice, Mean, read-out: AUC(0-t)): 7330 ng·h/mL
- Cmax ([1]; male, ICR, mouse, plasma, po, 5 mg/kg, PO 5 mg/kg, ICR mice, Mean, read-out: Cmax): 1760 ng/mL
- MRT last [1, 7]: 2.64 h
- MRT inf [1, 7]: 2.82 h
- Tmax ([1]; male, ICR, mouse, plasma, po, 5 mg/kg, PO 5 mg/kg, ICR mice, Mean, read-out: Tmax): 1.33 h
- half-life [1, 7]: 1.41 h
- AUC(0-inf) [1, 8]: 6560 ng·h/mL
- AUC(0-t) ([1]; male, ICR, mouse, plasma, po, 5 mg/kg, PO 5 mg/kg, ICR mice, individual animal, read-out: AUC(0-t)): 6320 ng·h/mL
- Cmax ([1]; male, ICR, mouse, plasma, po, 5 mg/kg, PO 5 mg/kg, ICR mice, individual animal, read-out: Cmax): 1370 ng/mL
- MRT last [1, 8]: 2.65 h
- MRT inf [1, 8]: 2.92 h
- Tmax ([1]; male, ICR, mouse, plasma, po, 5 mg/kg, PO 5 mg/kg, ICR mice, individual animal, read-out: Tmax): 2 h
- half-life [1, 8]: 1.57 h
- AUC(0-t) ([1]; male, ICR, mouse, plasma, po, 5 mg/kg, oral intragastric administration 5 mg/kg, read-out: AUC0-t): 7330 ng·h/mL
- IC50 [2]: 7.39 nM
